Patent publication US10800772B2 (Gilead Sciences, Inc., priority 2016, dated 2020)

Experiments:
HIV-IIIb (wildtype) = experiment: Antiviral assay in MT4 cells, HIV-IIIb wildtype; type: cell-based, HIV-1; conditions: Human immunodeficiency virus 1, IIIB, MT4, 120 h, read-out: WT EC50
Procedure, shortened: (§1)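 Each EC50 is the compound concentration that reduced CellTiter-Glo luminescence by 50% after 5 days of culture of HIV-IIIb-infected MT4 cells. Infection was at 0.004 m.o.i. with 3 h pre-incubation. Testing used 10 concentrations in quadruplicate.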

HIV-IIIb IN T174I BT = experiment: Antiviral assay in MT4 cells, HIV-IIIb IN T174I BT virus (from viral breakthrough); type: cell-based, HIV-1; conditions: Human immunodeficiency virus 1, IIIB, MT4, 120 h, read-out: T174I BT EC50, MT4 cells, HIV-IIIb IN T174I BT (viral breakthrough), 5 days, CellTiter-Glo
Procedure, shortened: as §1

HIV-IIIb IN T174I DE = experiment: Antiviral assay in MT4 cells, HIV-IIIb IN T174I DE virus (from dose escalation passaging); type: cell-based, HIV-1; conditions: Human immunodeficiency virus 1, IIIB, MT4, 120 h, read-out: T174I DE EC50, MT4 cells, HIV-IIIb IN T174I DE (dose escalation), 5 days, CellTiter-Glo
Procedure, shortened: as §1

[1] = Hum MS stability (human microsomal stability half-life); conditions: human microsomes

Compound | EC50 (HIV-IIIb (wildtype)) | EC50 (HIV-IIIb IN T174I BT) | EC50 (HIV-IIIb IN T174I DE) | half-life [1]
COCCN1CCCC(c2nn(C)c3ccc(-c4nc5cc(C)c([C@H](OC(C)(C)C)C(=O)O)c(-c6ccc(Cl)cc6)c5s4)cc23)C1 (stereo partly drawn) [Compound 77, (2S)-2-(tert-butoxy)-2-(7-(4-chlorophenyl)-2-(3-(1-(2-methoxyethyl)piperidin-3-yl)-1-methyl-1H-indazol-5-yl)-5-methylbenzo[d]thiazol-6-yl)acetic acid] | 9 nM | 1810 nM | 3270 nM | 2.17 h
CCN1CCN(c2nn(C)c3ccc(-c4nc5cc(C)c([C@H](OC(C)(C)C)C(=O)O)c(-c6ccc(Cl)cc6)c5s4)cc23)CC1 [Compound 133, (S)-2-(tert-butoxy)-2-(7-(4-chloro-phenyl)-2-(3-(4-ethylpiperazin-1-yl)-1-methyl-1H-indazol-5-yl)-5-methylbenzo[d]thiazol-6-yl) acetic acid] | 3 nM | 434 nM | 439 nM | 5.82 h
Cc1cc2nc(-c3ccc4c(c3)c(N3CC(C)(C)N(C)C3=O)nn4C)sc2c(-c2ccc(Cl)cc2)c1[C@H](OC(C)(C)C)C(=O)O [Compound 122, (S)-2-(tert-butoxy)-2-(7-(4-chlorophenyl)-5-methyl-2-(1-methyl-3-(3,4,4-trimethyl-2-oxoimidazolidin-1-yl)-1H-indazol-5-yl)benzo[d]thiazol-6-yl)acetic acid] | 14 nM | 1440 nM | 3810 nM | 4.48 h
Cc1cc2nc(-c3ccc4c(c3)c(C3CCN(C(=O)[C@H]5CCCO5)CC3)nn4C)sc2c(-c2ccc(Cl)cc2)c1[C@H](OC(C)(C)C)C(=O)O [Compound 9, (S)-2-(tert-butoxy)-2-(7-(4-chlorophenyl)-5-methyl-2-(1-methyl-3-(1-((R)-tetrahydrofuran-2-carbonyl)piperidin-4-yl)-1H-indazol-5-yl)benzo[d]thiazol-6-yl)acetic Acid] | 9 nM | 237 nM | 511 nM | 4.17 h
Cc1cc2nc(-c3ccc4c(c3)c(C3CCOCC3)nn4C)sc2c(-c2ccc(Cl)cc2)c1[C@H](OC(C)(C)C)C(=O)O [Compound 19, (S)-2-(tert-butoxy)-2-(7-(4-chlorophenyl)-5-methyl-2-(1-methyl-3-(tetrahydro-2H-pyran-4-yl)-1H-indazol-5-yl)benzo[d]thiazol-6-yl)acetic Acid] | 12 nM | 1170 nM | 2780 nM | 4.15 h
Cc1cc2nc(-c3ccc4c(c3)c(C3CCN([C@H]5CCN(C)C5)CC3)nn4C)sc2c(-c2ccc(Cl)cc2)c1[C@H](OC(C)(C)C)C(=O)O [Compound 163, (S)-2-(tert-butoxy)-2-(7-(4-chloro-phenyl)-5-methyl-2-(1-methyl-3-(1-((S)-1-methyl-pyrrolidin-3-yl)piperidin-4-yl)-1H-indazol-5-yl)benzo[d]thiazol-6-yl)acetic acid] | 20 nM | 204 nM | 324 nM | 2.12 h
Cc1cc2nc(-c3cnc4c(c3)c(C3CCN(C5COC5)CC3)cn4C)sc2c(-c2ccc(Cl)cc2)c1[C@H](OC(C)(C)C)C(=O)O [Compound 17, (S)-2-(tert-butoxy)-2-(7-(4-chlorophenyl)-5-methyl-2-(1-methyl-3-(1-(oxetan-3-yl)piperidin-4-yl)-1H-pyrrolo[2,3-b]pyridin-5-yl)benzo[d]thiazol-6-yl)acetic Acid] | 8 nM | 238 nM | 786 nM | 4.7 h
COC1(C)CN(c2nn(C)c3ccc(-c4nc5cc(C)c([C@H](OC(C)(C)C)C(=O)O)c(-c6ccc(Cl)cc6)c5s4)cc23)C1 [Compound 131, (S)-2-(tert-butoxy)-2-(7-(4-chloro-phenyl)-2-(3-(3-methoxy-3-methylazetidin-1-yl)-1-methyl-1H-indazol-5-yl)-5-methylbenzo[d]thiazol-6-yl) acetic acid] | 10 nM | 7950 nM | 3740 nM | 4.15 h
Cc1cc2nc(-c3ccc4c(c3)c(C3CCN(C5COC5)C3)nn4C)sc2c(-c2ccc(Cl)cc2)c1[C@H](OC(C)(C)C)C(=O)O (stereo partly drawn) [Compound 70, (2S)-2-(tert-butoxy)-2-(7-(4-chlorophenyl)-5-methyl-2-(1-methyl-3-(1-(oxetan-3-yl)pyrrolidin-3-yl)-1H-indazol-5-yl)benzo[d]thiazol-6-yl)acetic acid] | 7 nM | 587 nM | 942 nM | 5.87 h
Cc1cc2nc(-c3ccc4c(c3)c(C3CCOC3)nn4C)sc2c(-c2ccc(Cl)cc2)c1[C@H](OC(C)(C)C)C(=O)O (stereo partly drawn) [Compound 52, (2S)-2-(tert-butoxy)-2-(7-(4-chlorophenyl)-5-methyl-2-(1-methyl-3-(tetrahydrofuran-3-yl)-1H-indazol-5-yl)benzo[d]thiazol-6-yl)acetic acid] | 8 nM | 905 nM | 946 nM | 3.72 h
Cc1cc2nc(-c3ccc4c(c3)c(N3CCN(C)C3=O)nn4C)sc2c(-c2ccc(Cl)cc2)c1[C@H](OC(C)(C)C)C(=O)O [Compound 80, (S)-2-(tert-butoxy)-2-(7-(4-chlorophenyl)-5-methyl-2-(1-methyl-3-(3-methyl-2-oxoimidazolidin-1-yl)-1H-indazol-5-yl)benzo[d]thiazol-6-yl)acetic Acid] | 13 nM | 1510 nM | 2280 nM | 5.42 h
Cc1cc2nc(-c3ccc4c(n3)c(N3CCN([C@H]5C[C@@H](O)C5)CC3)nn4C)sc2c(-c2ccc(Cl)cc2)c1[C@H](OC(C)(C)C)C(=O)O [Compound 197, (S)-2-(tert-butoxy)-2-(7-(4-chloro-phenyl)-2-(3-(4-((1s,3s)-3-hydroxy-cyclobutyl)piperazin-1-yl)-1-methyl-1H-pyrazolo[4,3-b]pyridin-5-yl)-5-methylbenzo[d]thiazol-6-yl) acetic acid] | 18 nM | 936 nM | 2680 nM | 2.8 h
Cc1cc2nc(-c3ccc4c(c3)c(C3CCN(C5CCOC5)CC3)nn4C)sc2c(-c2ccc(Cl)cc2)c1[C@H](OC(C)(C)C)C(=O)O (stereo in doubt) [Compound 26, (S)-2-(tert-butoxy)-2-(7-(4-chlorophenyl)-5-methyl-2-(1-methyl-3-(1-((S)-tetrahydrofuran-3-yl)piperidin-4-yl)-1H-indazol-5-yl)benzo[d]thiazol-6-yl)acetic Acid] | 4 nM | 129 nM | 270 nM | 4.68 h
Cc1cc2nc(-c3ccc4c(n3)c(C3CCN([C@H]5CCN(C)C5)CC3)nn4C)sc2c(-c2ccc(Cl)cc2)c1[C@H](OC(C)(C)C)C(=O)O [Compound 172, (S)-2-(tert-butoxy)-2-(7-(4-chloro-phenyl)-5-methyl-2-(1-methyl-3-(1-((S)-1-methyl-pyrrolidin-3-yl)piperidin-4-yl)-1H-pyrazolo[4,3-b]pyridin-5-yl)benzo[d]thiazol-6-yl)acetic acid] | 5 nM | 54 nM | 118 nM | 0.933 h
CC(=O)N1CC[C@H](N2CCC(c3nn(C)c4ccc(-c5nc6cc(C)c([C@H](OC(C)(C)C)C(=O)O)c(-c7ccc(Cl)cc7)c6s5)nc34)CC2)C1 [Compound 170, (S)-2-(2-(3-(1-((S)-1-acetyl-pyrrolidin-3-yl)piperidin-4-yl)-1-methyl-1H-pyrazolo[4,3-b]pyridin-5-yl)-7-(4-chlorophenyl)-5-methylbenzo [d]thiazol-6-yl)-2-(tert-butoxy) acetic acid] | 2 nM | 57 nM | 112 nM | 0.533 h
COCCOC(=O)N1CCC(c2nn(C)c3ccc(-c4nc5cc(C)c([C@H](OC(C)(C)C)C(=O)O)c(-c6ccc(Cl)cc6)c5s4)cc23)C1 (stereo partly drawn) [Compound 73, (2S)-2-(tert-butoxy)-2-(7-(4-chlorophenyl)-2-(3-(1-((2-methoxyethoxy)carbonyl)pyrrolidin-3-yl)-1-methyl-1H-indazol-5-yl)-5-methylbenzo[d]thiazol-6-yl)acetic acid] | 6 nM | 720 nM | 823 nM | 3.05 h
Cc1cc2nc(-c3ccc4c(c3)c(C3CCN(C5CCOC5)CC3)nn4C)sc2c(-c2ccc(Cl)cc2)c1[C@H](OC(C)(C)C)C(=O)O (stereo in doubt) [Compound 27, (S)-2-(tert-butoxy)-2-(7-(4-chlorophenyl)-5-methyl-2-(1-methyl-3-(1-((R)-tetrahydrofuran-3-yl)piperidin-4-yl)-1H-indazol-5-yl)benzo[d]thiazol-6-yl)acetic Acid] | 4 nM | 154 nM | 245 nM | 4.17 h
Cc1cc2nc(-c3ccc4c(c3)c(N3CCN(CC5CC5)CC3)nn4C)sc2c(-c2ccc(Cl)cc2)c1[C@H](OC(C)(C)C)C(=O)O [Compound 100, (S)-2-(tert-butoxy)-2-(7-(4-chlorophenyl)-2-(3-(4-(cyclopropylmethyl)piperazin-1-yl)-1-methyl-1H-indazol-5-yl)-5-methylbenzo[d]thiazol-6-yl)acetic acid] | 10 nM | 1880 nM | 3590 nM | 3.23 h
